This passage reports Ki results from US9328138B2 (priority 2011, dated 2016).

The term Ki denotes a dissociation constant, usually derived from enzyme kinetics or from competition with a known ligand. Low readings indicate higher affinity, high ones lower affinity.

Experiment [1] addresses T1, HCV genotype 1b (BK) NS3 modified enzyme with a R155K mutation (Hepatitis C virus genotype 1b, UniProt P26663, R1181K).
T1 construct: HCV genotype 1b (BK) NS3 modified enzyme
Put plainly: HCV NS3 protease time-resolved fluorescence (TRF) assay, genotype 1b R155K. The experiment is classed as biochemical. To be noted: Ki 1b R155K. On the procedure: (§1) The HCV NS3 protease inhibitory activity of the present compounds may be tested using assays known in the art. One such assay is HCV NS3 protease time-resolved fluorescence (TRF) assay as described below and in International Patent Application Publication No. WO2006/102087. Other examples of such assays are described in e.g., International Patent Application Publication No. WO2005/046712. The assay is performed in a final volume of 100 μl in assay buffer containing 50 mM HEPES, pH 7.5, 150 mM NaCl, 15% glycerol, 0.15% Triton X-100, 10 mM DTT, and 0.1% PEG 8000. NS3 protease is pre-incubated with various concentrations of inhibitors in DMSO for 30 minutes. The reaction is initiated by adding the TRF peptide substrate (final concentration 100 nM). NS3 mediated hydrolysis of the substrate is quenched after 1 hour at room temperature with 100 μl of 500 mM MES, pH 5.5. Product fluorescence is detected using either a VICTOR V2 or FUSION fluorophotometer (Perkin Elmer Life and Analytical Sciences) with excitation at 340 nm and emission at 615 nm with a 400 μs delay. Testing concentrations of different enzyme forms are selected to result in a signal to background ratio (S/B) of 10-30. IC50 values are derived using a standard four-parameter fit to the data. K; values are derived from IC50 values using the following formula, IC50=Ki(1+[S]/Km), Eqn (1), where [S] is the concentration of substrate peptide in the reaction and KM is the Michaelis constant. See Gallinari et al., 1999, Biochem. 38:5620-32; Gallinari et al., 1998, J. Virol. 72:6758-69; Taliani et al., 1996, Anal. Biochem. 240:60-67.
(§2) The HCV NS3 protease inhibitory activity was measured using the protease time-resolved fluorescence (TRF) assay as described below and in International Patent Application Publication No. WO 2006/102087. The assay was performed with HCV genotype 1b (BK) NS3 modified enzyme with a R155K mutation and genotype 3a (3A-1).
(§3) The assay was performed in a final volume of 50 μl in assay buffer containing 50 mM HEPES, pH 7.5, 150 mM NaCl, 15% glycerol, 0.15% TRITON X-100, 10 mM DTT, and 0.1% PEG 8000. NS3 and NS4A protease is pre-incubated with various concentrations of inhibitors in DMSO for 10 minutes. The reaction was initiated by adding the TRF peptide substrate (final concentration 25 nM) and NS3 mediated hydrolysis of the substrate proceeds for 6 hours at room temperature. Product fluorescence is detected using an Envision plate reader (Perkin Elmer) with excitation at 340 nm and emission at 615 nm with a 400 μs delay. Testing concentrations of the enzymes were selected to result in a signal to background ratio (S/B) of 5-20. IC50 values are derived using a standard four-parameter fit to the data.
(§4) NS3 and NS4A protease is pre-incubated with various concentrations of inhibitors in DMSO for 30 minutes. The reaction is initiated by adding the TRF peptide substrate (final concentration 100 nM). NS3 mediated hydrolysis of the substrate is quenched after 1 hour at room temperature with 100 μl of 500 mM MES, pH 5.5. Product fluorescence is detected using either a VICTOR V2 or FUSION fluorophotometer (Perkin Elmer Life and Analytical Sciences) with excitation at 340 nm and emission at 615 nm with a 400 μs delay. Testing concentrations of the enzymes are selected to result in a signal to background ratio (S/B) of 8-30. IC50 values are derived using a standard four-parameter fit to the data. Ki values are derived from IC50 values using the following formula, IC50=Ki(1+[S][…]), Eqn (1), where [S] is the concentration of substrate peptide in the reaction and KM is the Michaelis constant. See Gallinari et al., 1999, Biochem. 38:5620-32; Gallinari et al., 1998, J. Virol. 72:6758-69; and Taliani et al., 1996, Anal. Biochem. 240:60-67. ND means not determined.

The target in experiment [2] is HCV NS3 protease genotype 3a (3A-1) (Hepatitis C virus genotype 3a, UniProt Q81258). Put plainly: HCV NS3 protease time-resolved fluorescence (TRF) assay, genotype 3a. The experiment is classed as biochemical. To be noted: Ki 3a. On the procedure:
as §1, §2, §3, §4

[3] abbreviates: genotype 1b (BK) NS3 R155K, single value.

Regarding `C=C[C@@H]1C[C@]1(NC(=O)[C@@H]1C[C@@H]2CN1C(=O)[C@H](C1CCCC1)NC(=O)O[C@@H]1CCC[C@H]1CC/C=C/Cc1c(nc3ccccc3c1OCCCN1CCCC1=O)O2)C(=O)NS(=O)(=O)C1CC1` [Example 78, (3aR,7S,10S,12R,21E,24aS)-7-cyclo pentyl-N-{(1R,2S)-1-[(cyclopropylsulfonyl)carbamoyl]-2-ethenylcyclopropyl}-5,8-dioxo-19-[3-(2-oxopyrrolidin-1-yl)propoxy]-1,2,3,3a,5,6,7,8,11,12,20,23,24,24a-tetradecahydro-10H-9,12-methano-cyclopenta[18,19][1,10,3,6]dioxa diazacyclonona decino[11,12-b] quinoline-10-carboxamide], the Ki came out at 0.08 nM in experiment [1] (setting [3]) and 0.54 nM in experiment [2].

Take `C=C[C@@H]1C[C@]1(NC(=O)[C@@H]1C[C@@H]2CN1C(=O)[C@H](C(C)(C)C)NC(=O)O[C@@H]1CCC[C@H]1CC/C=C/Cc1c(nc3ccccc3c1OCCCN1CCCCC1)O2)C(=O)NS(=O)(=O)C1(C)CC1` [Example 59, (3aR,7S,10S,12R,21E,24aS)-7-tert-butyl-N-[(1R,2S)-2-ethenyl-1-{[(1-methylcyclopropyl)sulfonyl]carbamoyl}cyclopropyl]-5,8-dioxo-19-[3-(piperidin-1-yl)propoxy]-1,2,3,3a,5,6,7,8,11,12,20,23,24,24a-tetra decahydro-10H-9,12-methanocyclopenta[18,19][1,10,3,6] dioxadiazacyclononadecino[11,12-b] quinoline-10-carboxamide]: the inhibition constant (Ki) in experiment [1] (setting [3]) is 0.11 nM; in experiment [2] it was 0.45 nM.

`C=C[C@@H]1C[C@]1(NC(=O)[C@@H]1C[C@@H]2CN1C(=O)[C@H](C(C)(C)C)NC(=O)O[C@@H]1C[C@H]1CCCCCc1c(nc3cc(F)ccc3c1OCCCN1CCCC1)O2)C(=O)NS(=O)(=O)C1(C)CC1` [Example 151, (1aR,5S,8S,10R,22aR)-5-tert-butyl-N-[(1R,2S)-2-ethenyl-1-{[(1-methylcyclopropyl)sulfonyl]carbamoyl}cyclopropyl]-14-fluoro-3,6-dioxo-17-[3-(pyrrolidin-1-yl)propoxy]-1,1a,3,4,5,6,9,10,18, 19,20,21,22,22a-tetradecahydro-8H-7,10-methanocyclopropa[18,19][1,10,3,6] dioxadiazacyclononadecino[11,12-b] quinoline-8-carboxamide]: the Ki in experiment [1] (setting [3]) worked out at 0.074 nM; in experiment [2] it was 0.62 nM.

For `C=C[C@@H]1C[C@]1(NC(=O)[C@@H]1C[C@@H]2CN1C(=O)[C@H](C(C)(C)C)NC(=O)O[C@@H]1C[C@H]1CCCCCc1c(nc3ccccc3c1OC1CC3CCC(C1)N3CCOC)O2)C(=O)NS(=O)(=O)C1(C)CC1` (single isomer, unassigned) [Example 280], the Ki worked out at 0.024 nM in experiment [1] (first of two values printed in the cell (not explained)), 0.28 nM in experiment [1] (second of two values printed in the cell (not explained)) and 4.65 nM in experiment [2].

In the case of `C=C[C@@H]1C[C@]1(NC(=O)[C@@H]1C[C@@H]2CN1C(=O)[C@H](C(C)(C)C)NC(=O)O[C@@H]1CCC[C@H]1CCCCCc1c(nc3ccccc3c1OCCN1CCOCC1)O2)C(=O)NS(=O)(=O)N(C)CCOC` [Example 111, (3aR,7S,10S,12R,24aR)-7-tert-butyl-N-[(1R,2S)-2-ethenyl-1-{[(2-methoxyethyl)(methyl)sulfamoyl]carbamoyl}cyclopropyl]-19-[2-(morpholin-4-yl)ethoxy]-5,8-dioxo-1,2,3,3a,5,6,7,8,11,12,20,21,22,23,24,24a-hexadecahydro-10H-9,12-methano-cyclopenta[18,19][1,10,3,6] dioxadiazacyclononadecino [11,12-b] quinoline-10-carboxamide], the values for the Ki in experiment [1] (setting [3]) and in experiment [2] were 11 nM and 272 nM, respectively.

`C=C[C@@H]1C[C@]1(NC(=O)[C@@H]1C[C@@H]2CN1C(=O)[C@H](C(C)(C)C)NC(=O)O[C@@H]1C[C@H]1CCCCCc1c(nc3ccccc3c1OCCCN1CCN(C)CC1)O2)C(=O)NS(=O)(=O)C1(C)CC1` [Example 131, (1aR,5S,8S,10R,22aR)-5-tert-butyl-N-[(1R,2S)-2-ethenyl-1-{[(1-methylcyclopropyl)sulfonyl]carbamoyl}cyclopropyl]-17-[3-(4-methylpiperazin-1-yl)propoxy]-3,6-dioxo-1,1a,3,4,5,6,9,10,18,19,20,21,22,22a-tetradecahydro-8H-7,10-methanocyclopropa[8,19][1,10,3,6]dioxadiazacyclononadecino[11,12-b]quinoline-8-carboxamide]: the values for the Ki in experiment [1] (setting [3]) and in experiment [2] were 0.11 nM and 1.3 nM, respectively.

For `C=C[C@@H]1C[C@]1(NC(=O)[C@@H]1C[C@@H]2CN1C(=O)[C@H](C(C)(C)C)NC(=O)O[C@@H]1C[C@H]1CCCCCc1c(nc3ccccc3c1OCCCN1CC(F)(F)C1)O2)C(=O)NS(=O)(=O)C1(C)CC1` [Example 206, (1aR,5S,8S,10R,22aR)-5-tert-butyl-17-[3-(3,3-difluoroazetidin-1-yl)propoxy]-N-[(1R,2S)-2-ethenyl-1-{[(1-methylcyclopropyl)sulfonyl]carbamoyl}cyclopropyl]-3,6-dioxo-1,1a,3,4,5,7,9,10,18,19,20,21,22,22a-tetradecahydro-8H-7,10-methanocyclopropa[18,19][1,10,3,6] dioxadiazacyclononadecino[11,12-b] quinoline-8-carboxamide], the Ki in experiment [1] (setting [3]) was 0.2 nM; in experiment [2], 2.6 nM.

`O=C1N[C@@H](C2CCCC2)C(=O)N2C[C@@H](C[C@H]2C(=O)N[C@]2(C(=O)NS(=O)(=O)C3CC3)C[C@H]2C2CC2)Oc2nc3ccccc3c(O)c2C/C=C/CC[C@@H]2CCC[C@H]2O1` [Example 21, (3aR,7S,10S,12R,21E,24aS)-7-cyclopentyl-N-[(1S,2R)-2-[(cyclopropylsulfonyl)carbamoyl]-1,1′-bi(cyclopropyl)-2-yl]-19-hydroxy-5,8-dioxo-1,2,3,3a,5,6,7,8,11,12,20,23,24,24a-tetradecahydro-10H-9,12-methanocyclopenta[18,19][1,10,3,6]dioxadiazacyclononadecino[11,12-b]quinoline-10-carboxamide]: the Ki in experiment [1] (setting [3]) turned out to be 0.51 nM; in experiment [2], 9.6 nM.

For `C=C[C@@H]1C[C@]1(NC(=O)[C@@H]1C[C@@H]2CN1C(=O)[C@H](C(C)(C)C)NC(=O)O[C@@H]1C[C@H]1CCCCCc1c(nc3ccccc3c1OCCCN1CC(O)(c3ccccc3)C1)O2)C(=O)NS(=O)(=O)C1(C)CC1` [Example 193, (1aR,5S,8S,10R,22aR)-5-tert-butyl-N-[(1R,2S)-2-ethenyl-1-{[(1-methylcyclopropyl)sulfonyl]carbamoyl}cyclopropyl]-17-[3-(3-hydroxy-3-phenylazetidin-1-yl)propoxy]-3,6-dioxo-1,1a,3,4,5,6,9,10,18,19,20, 21,22,22a-tetradeca hydro-8H-7,10-methanocyclopropa[18,19][1,10,3,6] dioxadiazacyclononadecino[11,12-b] quinoline-8-carboxamide], the Ki in experiment [1] (setting [3]) is 0.16 nM; in experiment [2], 1.5 nM.
